Assay [1] has as its system mTORC2 signaling (FHRE dependent gene expression). Put plainly: FHRE-luciferase reporter analysis in A549. Type of assay: cell-based, human. Conditions: A549 cells, treated for 24 hours; FIG. 7d. The source says:
mTORC2 activates SGK3, and SGK3 phosphorylates Fox03a, allowing Fox03a to remain in the cytoplasm. When mTORC2 is inhibited, Fox03a is dephosphorylated and translocated to the nucleus, and in the nucleus, it binds to FHRE located in a gene promoter to induce gene expression. Therefore, the change in the intracellular location of Fox03a and FHRE dependent gene expression become indicators for evaluating mTORC2 activity. In order to evaluate the effect of norathyriol on the mTORC2 activity, norathyriol was treated to A549, and then expression of an FHRE-synthetic luciferase gene was investigated by luciferase reporter analysis.
Specifically, A549 cells of 2×10^5 were seeded in a 35 mm culture dish and cultured for 1 day, and then a 2.5 μg FHRE-Luc plasmid and a 0.1 μg renilla luciferase plasmid were introduced by a transfection method using Lipofectamine LTX reagent (Thermofisher). After 18 hours, norathyriol was treated for 24 hours. Luciferase assay was performed with Dual Luciferase Reporter Assay System (Promega) according to the manufacturer's instructions.

The test system of assay [2] is Pten KO mice. Description: Y-type maze test in Pten KO mice. Format: in vivo. To be noted: 5 or 10 mg/kg intraperitoneally for 14 days, FIG. 1a. Here is the method: (§1) As Pten KO mice, Ptenf/f_cre/cre KO mice or Ptenf/f_cre/++ Het mice (KD) were obtained by mating Pten floxed/floxed mice and CAMKII-cre mice. DMSO or athyriol was intraperitoneally injected at 5 or 10 mg/kg for 2 weeks from the age of mice of 6 weeks, and a behavioral test was performed in 7 days after administration. Pten floxed/floxed mice were used as littermates of the same age as a normal control group.
A Y-maze was performed in a Y-shaped structure maze made of black acrylic material in which an angle of each arm was 120°, and a light and a cam were installed on the ceiling, and it was checked that white mice entered each arm while the surroundings were covered with a curtain. Through this, short-term memory was analyzed. In order to adapt mice to the environment, they were acclimated to the experimental space for 30 minutes. The mice were placed at one end of the maze and allowed to move freely for 12 minutes. Accuracy was measured by dividing time into 8 minutes, 10 minutes and 12 minutes. When the four paws of the mice entered the entrance, it was considered as completely entered. The percentage of accuracy was calculated as the number of times which a mouse entered each maze without repetition. The number of times entering each of three different arms was divided by the total number of times entering arms-2 and converted into a percentage for datafication. […]

The subject of assay [3] is Pten KO mice. Description: Passive avoidance test in Pten KO mice. Type of assay: in vivo. To be noted: FIG. 1b. Here is the method: as §1
A passive avoidance test was performed as described in Heo et al. (J. Ethnopharmacol. (2009) 122:20-27). After training the avoidance action by strong light three times a day, an electric foot shock (1 mA, 300 g test) was applied for 3 seconds in a dark room at the same time on the next day. After placing white mice in the same room in 24 hours after applying the shock, an avoidance response by light, that is, the time to move from a bright room to a dark room was measured, and it was dataficated for each group. Exactly after 24 hours of adaptation training, the mice were put back into the bright room and the latency time required to enter the dark room was measured for 720 seconds.

Assay [4] deals with Pten KO mice. Description: Social-open field test in Pten KO mice. Conditions: 5 or 10 mg/kg, FIG. 3. Type of assay: in vivo. Here is the method: as §1
When athyriol was administered to the Pten KO mice, in order to confirm the sociability disorder was improved, a social-open field test was performed. After adapting the Pten-KO mice to the record environment for 30 minutes, they were adapted to the open filed test space made of black acrylic for 10 minutes. An unfamiliar mouse was placed in a test space in a transparent acrylic cage allowing minimal contact with the sense of smell. The movement of the test mouse was recorded for 10 minutes and analyzed with ethovision 3.1 program. Then, sociability was measured by setting 10 cm around the cylinder where the unfamiliar mouse was placed.
The social-open field test is measuring sociability as the time spent in a social interaction zone in contact with other mice in an open space, and measures the time of actually contacting also in the contact space, or sniffling toward other mice. […]

Assay [5] relates to normal mice. Put plainly: 3 chamber test in normal mice. Type of assay: in vivo. Conditions: 5 mg/kg, sociability measurement-2 session, FIG. 14b. Here is the method:
3-chamber test is a test to confirm sociability, social cognition, and social sexual preference, and it was tested by composing sessions 1 and 2. The experimental site was consisted of three chambers made of transparent acrylic walls with a small door and each chamber was length 50 cm×width 100 cm×height 50 cm. Through a cylindrical cage, the sense of smell and minimal contact of the test mice to the unfamiliar mouse were allowed. Prior to the test, the test mice were placed in an intermediate chamber and adapted for 5 minutes with both doors closed. The test was performed by dividing into sessions I and II. In the 3-chamber sociability measurement-1 session, an unfamiliar mouse met first was placed in a transparent box located at one end of the three rooms, and an empty transparent box of the same size was placed in the room located at the other side, and the target mouse was placed in the middle room, and then the time searching toward the counterpart within the social interaction zone was measured.
In order to verify this possibility, the efficacy of athyriol on memory ability and sociability of normal animals was investigated. […]

Regarding `O=c1c2cc(O)c(O)cc2oc2cc(O)cc(O)c12` [norathyriol, 1,3,6,7-tetrahydroxy-9H-xanthen-9-one], the “expression of the FHRE-synthetic luciferase gene” value in assay [1] is on record as “increased by twice or more”.
For the compound `COc1cc(O)c2c(=O)c3cc(O)c(O)cc3oc2c1` [athyriol, 1,6,7-Trihydroxy-3-methoxy-9H-xanthen-9-on], the “short-term memory in Y-type maze test” value in assay [2] is “recovered almost to the level of the normal control group”. Moreover, in assay [3] (5 mg/kg), the “memory ability in passive avoidance test” value is recorded as “rather more excellent than the control group”. The “memory ability in passive avoidance test, level relative to control group” value in assay [3] (10 mg/kg, % of the control group) was found to be 89%. In addition, the “increase of direct counterpart searching time” value in assay [4] was 6%. Also, the “increase in ratio of searching time for familiar mice to searching time for unfamiliar mice compared to vehicle control” value in assay [5] amounted to 11%.

Values taken from patent US20240366555A1, “SELECTIVE MTORC2 INHIBITOR AND USES THEREOF” (ALIAD BIOPHARMA, priority 2021, published 2024).
